Data on three compounds can be found in patent US8188127B2, “Microbicidal composition” (Rohm and Haas Company, priority 2007, dated 2012).

What all share (format): cell-based
Test [1] deals with A. niger ATCC # 16404. Put plainly: Microtiter plate MIC / synergy test (Kull synergy index), mold, PDB medium. As to conditions: for Ca: MIC of first component (A) alone (QA) / Cb: MIC of MBIT alone (QB): PDB medium, 25° C.; for Cb: ppm AI of MBIT alone (MIC, QB) / Ca: ppm AI of first component (A) alone (MIC, QA): A. niger. The source says: (§1) One measure of synergism is the industrially accepted method described by Kull, F. C.; Eisman, P. C.; Sylwestrowicz, H. D. and Mayer, R. L., in Applied Microbiology 9:538-541 (1961), using the ratio determined by the formula: Qa/QA+Qb/QB=Synergy Index (“SI”) wherein: • QA=concentration of compound A (first component) in ppm, acting alone, which produced an end point (MIC of Compound A). • Qa=concentration of compound A in ppm, in the mixture, which produced an end point. • QB=concentration of compound B (second component) in ppm, acting alone, which produced an end point (MIC of Compound B). • Qb=concentration of compound B in ppm, in the mixture, which produced an end point.
(§2) When the sum of Qa/QA and Qb/QB is greater than one, antagonism is indicated. […] The lower the SI, the greater the synergy shown by that particular mixture. The minimum inhibitory concentration (MIC) of a microbicide is the lowest concentration tested under a specific set of conditions that prevents the growth of added microorganisms.
(§3) Synergy tests were conducted using standard microtiter plate assays with media designed for optimal growth of the test microorganism. Minimal salt medium supplemented with 0.2% glucose and 0.1% yeast extract (M9GY medium) was used for testing bacteria; Potato Dextrose Broth (PDB medium) was used for testing yeast and mold. In this method, a wide range of combinations of microbicides was tested by conducting high resolution MIC assays in the presence of various concentrations of MBIT. High resolution MICs were determined by adding varying amounts of microbicide to one column of a microtitre plate and doing subsequent […] dilutions using an automated liquid handling system to obtain a series of endpoints ranging from 2 ppm to 10,000 ppm active ingredient.
(§4) The synergy of the combinations of the present invention was determined against several microorganisms, as described in the Tables below. The bacteria were used at a concentration of about 5×10^6 bacteria per mL and the yeast and mold at 5×10^5 fungi per mL. These microorganisms are representative of natural contaminants in many consumer and industrial applications. […] (yeast and mold) or 30° C. (bacteria).
(§5) In each test, Second Component (B) was MBIT and the First Component (A) was the other commercial microbicide.

The subject of test [2] is C. albicans ATCC # 10231. Put plainly: Microtiter plate MIC / synergy test (Kull synergy index), yeast, PDB medium. As to conditions: for Ca: MIC of first component (A) alone (QA) / Cb: MIC of MBIT alone (QB): PDB medium, 25° C.; for Cb: ppm AI of MBIT alone (MIC, QB) / Ca: ppm AI of first component (A) alone (MIC, QA): C. albicans.
Description: as §1, §2, §3, §4, §5

For test [3], the system named is Ps. aeruginosa ATCC # 9027. Nature of the test: Microtiter plate MIC / synergy test (Kull synergy index), bacteria, M9GY medium. As to conditions: for Cb: ppm AI of MBIT alone (MIC, QB) / Ca: ppm AI of first component (A) alone (MIC, QA): Ps. aeruginosa. As to the method:
as §2, §3
The bacteria were used at a concentration of about 5×10^6 bacteria per mL and the yeast and mold at 5×10^5 fungi per mL. These microorganisms are representative of natural contaminants in many consumer and industrial applications. […] (yeast and mold) or 30° C. (bacteria).
as §5

Test [4] relates to S. aureus ATCC # 6538. Described as above. As to conditions: for Ca: MIC of first component (A) alone (QA) / Cb: MIC of MBIT alone (QB): M9GY medium, 30° C.; for Cb: ppm AI of MBIT alone (MIC, QB) / Ca: ppm AI of first component (A) alone (MIC, QA): S. aureus.
Description: as §1, §2, §3, §4, §5

Setting [5] is: A. niger ATCC # 16404, contact time 3 days.
Where [6] appears, read: A. niger ATCC # 16404, contact time 7 days.
Setting [7] is: C. albicans ATCC # 10231, contact time 48 hrs.
Where [8] appears, read: C. albicans ATCC # 10231, contact time 72 hrs.
Setting [9] is: Ps. aeruginosa ATCC # 9027, contact time 48 hrs, M9GY medium, 30° C.
Setting [10] is: S. aureus ATCC # 6538, contact time 24 hrs.
Where [11] appears, read: S. aureus ATCC # 6538, contact time 48 hrs.

Values joined by “and” are separate entries in the source; they are usually repeats but may differ in a detail not shown here. Equal entries are not always repeated. Bounds are passed on as bounds.

For the compound `CCCCCCCC(=O)O` [Caprylic acid], the “Ca: MIC of first component (A) alone (QA)” value in test [1] (setting [5]) is 650 ppm AI; in test [1] (setting [6]), 875 ppm AI; in test [2] (setting [7]), 65 ppm AI; in test [2] (setting [8]) it was 87.5 ppm AI; in test [3] (setting [9]), above 11000 ppm AI; in test [4] (setting [10]) it was 425 ppm AI. The “Ca: MIC of first component (A) alone (QA)” value in test [4] (setting [11]) came to 425 ppm AI.

Regarding `Cn1sc2ccccc2c1=O` [MBIT, N-methyl-1,2-benzisothiazolin-3-one], the “Cb: MIC of MBIT alone (QB)” value was 37.5 ppm AI and 75 ppm AI in test [1] (setting [5]); 150 ppm AI in test [1] (setting [6]); 30 ppm AI in test [2] (setting [7]); 60 ppm AI and 30 ppm AI in test [2] (setting [8]); 75 ppm AI in test [3] (Ps. aeruginosa ATCC # 9027, contact time 24 hrs, M9GY medium, 30° C.); 125 ppm AI in test [3] (setting [9]). The “Cb: MIC of MBIT alone (QB)” value in test [4] (setting [10]) was 15 ppm AI and 30 ppm AI; in test [4] (setting [11]), 30 ppm AI. Further, the “Cb: MIC of MBIT alone” value in test [1] (A. niger ATCC # 16404, contact time 3 days, component alone (Table 8)) is listed as 75 ppm AI; in test [1] (A. niger ATCC # 16404, contact time 3 days, component alone (Table 9)), 37.5 ppm AI; in test [1] (A. niger ATCC # 16404, contact time 3 days, component alone (Table 10)), 37.5 ppm AI; in test [1] (A. niger ATCC # 16404, contact time 7 days, component alone (Table 8)) it was 150 ppm AI; in test [1] (A. niger ATCC # 16404, contact time 7 days, component alone (Table 9)), 150 ppm AI; in test [1] (A. niger ATCC # 16404, contact time 7 days, component alone (Table 10)), 150 ppm AI. In addition, the “Cb: MIC of MBIT alone” value in test [2] (C. albicans ATCC # 10231, contact time 48 hrs, component alone (Table 8)) was determined as 30 ppm AI; in test [2] (C. albicans ATCC # 10231, contact time 48 hrs, component alone (Table 9)), 30 ppm AI; in test [2] (C. albicans ATCC # 10231, contact time 48 hrs, component alone (Table 10)) it was 30 ppm AI; in test [2] (C. albicans ATCC # 10231, contact time 72 hrs, component alone (Table 8)), 30 ppm AI; in test [2] (C. albicans ATCC # 10231, contact time 72 hrs, component alone (Table 9)), 30 ppm AI; in test [2] (C. albicans ATCC # 10231, contact time 72 hrs, component alone (Table 10)) it was 60 ppm AI. In addition, the “Cb: MIC of MBIT alone” value in test [3] (Ps. aeruginosa ATCC # 9027, contact time 24 hrs, component alone (Table 8)) was 75 ppm AI; in test [3] (Ps. aeruginosa ATCC # 9027, contact time 24 hrs, component alone (Table 9)) it was 75 ppm AI; in test [3] (Ps. aeruginosa ATCC # 9027, contact time 48 hrs, component alone (Table 8)), 125 ppm AI; in test [3] (Ps. aeruginosa ATCC # 9027, contact time 48 hrs, component alone (Table 9)) it was 125 ppm AI; in test [3] (Ps. aeruginosa ATCC # 9027, contact time 48 hrs, component alone (Table 10)), 125 ppm AI; in test [4] (S. aureus ATCC # 6538, contact time 24 hrs, component alone (Table 8)) it was 30 ppm AI. Moreover, the “Cb: MIC of MBIT alone” value in test [4] (S. aureus ATCC # 6538, contact time 24 hrs, component alone (Table 9)) stood at 30 ppm AI; in test [4] (S. aureus ATCC # 6538, contact time 24 hrs, component alone (Table 10)), 15 ppm AI; in test [4] (S. aureus ATCC # 6538, contact time 48 hrs, component alone (Table 8)), 30 ppm AI; in test [4] (S. aureus ATCC # 6538, contact time 48 hrs, component alone (Table 9)) it was 30 ppm AI. The “Cb: ppm AI of MBIT alone (MIC, QB)” value in test [1] (contact time 3 days) is 37.5 ppm AI and 75 ppm AI; in test [1] (contact time 7 days), 150 ppm AI; in test [2] (contact time 48 hrs), 30 ppm AI; in test [2] (contact time 72 hrs), 30 ppm AI; in test [3] (contact time 24 hrs), 75 ppm AI; in test [3] (contact time 48 hrs) it was 125 ppm AI. Besides, the “Cb: ppm AI of MBIT alone (MIC, QB)” value in test [4] (contact time 24 hrs) is 15 ppm AI and 30 ppm AI; in test [4] (contact time 48 hrs), 30 ppm AI.

Regarding `O=C([O-])CNCO.[Na+]` [SUTTOCIDE A, sodium hydroxymethylglycinate], the “Ca: ppm AI of first component (A) alone (MIC, QA)” value stood at 875 ppm AI in test [1] (contact time 3 days); 1100 ppm AI in test [1] (contact time 7 days); 3000 ppm AI in test [2] (contact time 48 hrs); 3000 ppm AI in test [2] (contact time 72 hrs); 87.5 ppm AI in test [3] (contact time 24 hrs); 110 ppm AI in test [3] (contact time 48 hrs). Besides, the “Ca: ppm AI of first component (A) alone (MIC, QA)” value in test [4] (contact time 24 hrs) and in test [4] (contact time 48 hrs) was 110 ppm AI each time.
